According to PMC2788219, “The Acrylamide (S)-2 As a Positive and Negative Modulator of Kv7 Channels Expressed in Xenopus laevis Oocytes” (PLoS ONE, 2009):

Key:
Type in all cases: cell-based
Kv7.5 = molecular target: T1, Kv7.5 (Homo sapiens, UniProt Q9NR82); assay: two-electrode voltage clamp in Xenopus oocytes, […]; current […] of control at +[…] mV; conditions: read-out: % of control current at +40 mV (10 μM)
T1 construct: gene KCNQ5

Kv7.2 = molecular target: T2, Kv7.2 (Homo sapiens, UniProt O43526); assay: […] flux in transfected CHO cells; two-electrode voltage clamp in Xenopus oocytes
T2 construct: gene KCNQ2

Kv7.2-W236L = molecular target: T3, Kv7.2-W236L (Homo sapiens, UniProt O43526, W236L); assay: […] flux in transfected CHO cells; two-electrode voltage clamp in Xenopus oocytes (inhibition)
T3 construct: gene KCNQ2

Kv7.4 = molecular target: T4, Kv7.4 (Homo sapiens, UniProt P56696); assay: […] flux in transfected CHO cells; two-electrode voltage clamp in Xenopus oocytes; W242L loss of sensitivity
T4 construct: gene KCNQ4
T4 sequence (P56696 1-695): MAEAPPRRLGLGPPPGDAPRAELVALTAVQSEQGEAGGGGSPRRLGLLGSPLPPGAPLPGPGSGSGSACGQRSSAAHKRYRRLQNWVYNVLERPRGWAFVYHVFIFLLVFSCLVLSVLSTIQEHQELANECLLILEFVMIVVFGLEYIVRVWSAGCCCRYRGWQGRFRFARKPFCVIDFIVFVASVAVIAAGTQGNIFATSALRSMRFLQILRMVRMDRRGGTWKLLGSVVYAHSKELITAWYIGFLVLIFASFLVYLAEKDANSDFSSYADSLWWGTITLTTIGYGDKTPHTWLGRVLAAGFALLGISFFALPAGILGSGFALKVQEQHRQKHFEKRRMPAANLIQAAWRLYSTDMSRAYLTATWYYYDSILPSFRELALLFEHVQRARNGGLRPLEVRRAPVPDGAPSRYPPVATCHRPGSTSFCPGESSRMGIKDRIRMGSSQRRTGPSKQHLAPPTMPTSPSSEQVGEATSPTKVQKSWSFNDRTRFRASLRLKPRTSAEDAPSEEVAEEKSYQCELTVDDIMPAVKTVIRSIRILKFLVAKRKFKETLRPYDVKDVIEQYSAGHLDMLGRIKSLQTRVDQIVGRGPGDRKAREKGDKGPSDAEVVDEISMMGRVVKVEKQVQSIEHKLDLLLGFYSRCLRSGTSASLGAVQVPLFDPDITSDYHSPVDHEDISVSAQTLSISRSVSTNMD

Kv7.1 = molecular target: T5, Kv7.1 (Homo sapiens, UniProt P51787); assay: two-electrode voltage clamp in Xenopus oocytes, […]; weak inhibition; conditions: read-out: % of control current at +40 mV (10 μM)
T5 construct: gene KCNQ1
T5 sequence (P51787 1-676): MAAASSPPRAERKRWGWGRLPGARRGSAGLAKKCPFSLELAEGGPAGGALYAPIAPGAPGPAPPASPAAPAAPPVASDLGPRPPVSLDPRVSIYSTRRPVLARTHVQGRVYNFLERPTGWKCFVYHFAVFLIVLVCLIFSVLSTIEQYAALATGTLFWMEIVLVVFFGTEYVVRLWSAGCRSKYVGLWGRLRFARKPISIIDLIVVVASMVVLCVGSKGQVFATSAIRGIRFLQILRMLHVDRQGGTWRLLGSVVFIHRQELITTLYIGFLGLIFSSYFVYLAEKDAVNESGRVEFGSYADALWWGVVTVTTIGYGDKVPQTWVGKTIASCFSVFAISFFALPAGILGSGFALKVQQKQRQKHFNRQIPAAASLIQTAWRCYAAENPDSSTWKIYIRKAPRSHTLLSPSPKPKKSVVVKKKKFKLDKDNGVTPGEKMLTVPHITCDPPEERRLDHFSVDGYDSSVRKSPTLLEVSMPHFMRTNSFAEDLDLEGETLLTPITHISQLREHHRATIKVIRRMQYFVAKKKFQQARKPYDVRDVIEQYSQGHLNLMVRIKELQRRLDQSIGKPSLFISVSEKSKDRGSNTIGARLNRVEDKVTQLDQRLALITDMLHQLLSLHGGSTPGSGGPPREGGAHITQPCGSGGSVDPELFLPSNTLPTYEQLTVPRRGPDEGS

T1 sequence (Q9NR82 whole entry): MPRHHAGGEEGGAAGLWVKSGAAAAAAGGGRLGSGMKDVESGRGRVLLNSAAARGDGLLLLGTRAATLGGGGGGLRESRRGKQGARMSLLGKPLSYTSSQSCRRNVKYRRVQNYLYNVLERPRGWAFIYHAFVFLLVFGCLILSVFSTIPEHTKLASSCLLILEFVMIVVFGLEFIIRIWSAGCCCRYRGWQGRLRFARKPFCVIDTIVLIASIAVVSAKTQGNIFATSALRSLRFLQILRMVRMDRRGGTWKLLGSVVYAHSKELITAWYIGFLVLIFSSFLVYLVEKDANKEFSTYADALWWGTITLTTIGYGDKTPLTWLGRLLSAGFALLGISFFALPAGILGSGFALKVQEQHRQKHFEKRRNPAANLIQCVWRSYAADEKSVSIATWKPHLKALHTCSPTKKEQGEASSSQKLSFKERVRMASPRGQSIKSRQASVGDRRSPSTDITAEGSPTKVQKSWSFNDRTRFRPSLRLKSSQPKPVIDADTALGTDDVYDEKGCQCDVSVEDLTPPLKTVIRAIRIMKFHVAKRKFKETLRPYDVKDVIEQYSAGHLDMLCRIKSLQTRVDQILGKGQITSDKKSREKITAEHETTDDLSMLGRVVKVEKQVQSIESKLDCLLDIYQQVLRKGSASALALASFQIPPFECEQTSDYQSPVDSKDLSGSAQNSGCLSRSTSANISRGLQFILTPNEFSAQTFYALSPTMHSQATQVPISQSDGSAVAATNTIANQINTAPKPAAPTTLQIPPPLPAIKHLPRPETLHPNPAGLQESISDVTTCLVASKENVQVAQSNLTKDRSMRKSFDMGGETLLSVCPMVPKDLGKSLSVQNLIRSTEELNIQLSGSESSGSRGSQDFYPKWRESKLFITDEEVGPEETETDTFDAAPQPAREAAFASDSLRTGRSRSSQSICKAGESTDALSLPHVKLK
T3 sequence (O43526 whole entry W236L): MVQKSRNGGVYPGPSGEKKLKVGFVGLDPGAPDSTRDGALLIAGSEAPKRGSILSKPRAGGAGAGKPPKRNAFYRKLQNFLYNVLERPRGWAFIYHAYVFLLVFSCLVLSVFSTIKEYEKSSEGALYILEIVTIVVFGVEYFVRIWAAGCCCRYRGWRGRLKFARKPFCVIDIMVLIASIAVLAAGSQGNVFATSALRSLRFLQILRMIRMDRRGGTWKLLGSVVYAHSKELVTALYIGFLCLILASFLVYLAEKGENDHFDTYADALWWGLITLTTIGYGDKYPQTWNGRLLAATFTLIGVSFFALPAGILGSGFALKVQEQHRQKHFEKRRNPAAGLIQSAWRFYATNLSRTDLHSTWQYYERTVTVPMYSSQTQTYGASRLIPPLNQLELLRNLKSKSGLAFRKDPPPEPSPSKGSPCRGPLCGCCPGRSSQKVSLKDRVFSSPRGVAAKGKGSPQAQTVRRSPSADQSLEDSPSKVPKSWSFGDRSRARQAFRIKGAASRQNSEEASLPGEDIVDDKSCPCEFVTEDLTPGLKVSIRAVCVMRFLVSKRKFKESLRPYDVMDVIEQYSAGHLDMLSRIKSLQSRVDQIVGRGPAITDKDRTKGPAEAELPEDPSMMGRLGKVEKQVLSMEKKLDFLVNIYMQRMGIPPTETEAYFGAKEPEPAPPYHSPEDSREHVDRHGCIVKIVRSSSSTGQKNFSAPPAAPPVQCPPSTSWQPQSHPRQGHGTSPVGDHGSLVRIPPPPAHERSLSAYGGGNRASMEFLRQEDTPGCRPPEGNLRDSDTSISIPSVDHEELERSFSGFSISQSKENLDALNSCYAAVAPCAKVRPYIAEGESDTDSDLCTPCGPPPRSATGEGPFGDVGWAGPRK
T2 sequence (O43526 whole entry): as the sequence (O43526 whole entry W236L) above, with L236W counted along it

- remaining activity at 10 µM (Kv7.5): 676 ± 83.5%
- EC50 (Kv7.2): 170 nM
- IC50 (Kv7.2-W236L): 8100 nM
- EC50 (Kv7.4): 220 nM
- remaining activity at 10 µM (Kv7.1): 87.9 ± 2.2%
Structure (SMILES): C[C@H](NC(=O)/C=C/c1ccccc1F)c1ccc2c(c1)N(CC1CC1)CCO2 [(S)-2, (S)-N-[1-(4-Cyclopropylmethyl-3,4-dihydro-2H-benzo[1], [4]oxazin-6-yl)-ethyl]-3-(2-fluoro-phenyl)-acrylamide]
